Measurements published in US11685723B2, “Antibacterial agents: O-alkyl-deuterated pyronins” (Rutgers, the State University of New Jersey, priority 2018, dated 2023).
Values after ≈ are worked out from the molar mass of the structure shown. Like-named read-outs stand apart in the source and are kept apart here.

Tests used:
[1] = Metabolic stability, mouse liver microsomes; format: in vitro ADME; conditions: CD-1 mouse liver microsomes 1 mg/ml, 1 mM NADPH, pH 7.4, 37° C.
Method: (§1) Test compounds were incubated with mouse liver microsomes (CD-1; male and female pooled; 1 mg/ml) or human liver microsomes (male; 1 mg/ml) in 50 mM potassium phosphate, pH 7.4, and 1 mM NADPH at 37° C. Aliquots were removed at 0, 15, 30, 60, 90 and 120 min, and amounts of test compounds remaining were determined by LC-MS/MS. Half lives (t0.5) were calculated as t0.5=−0.693/k, where k is the slope of the linear regression of the natural logarithms of percentages of test compounds remaining vs. time.

[2] = Metabolic stability, human liver microsomes; format: in vitro ADME; conditions: human liver microsomes (male) 1 mg/ml, 1 mM NADPH, pH 7.4, 37° C.
Method: as §1

[3] = molecular target: E. coli RNA polymerase σ70 holoenzyme (Escherichia coli, UniProt P0A8T7+P0A8V2); assay: Fluorescence-detected inhibition of bacterial RNA polymerase; format: biochemical
Sequence of E. coli RNA polymerase σ70 holoenzyme (P0A8V2 whole entry, the tested form may be a part): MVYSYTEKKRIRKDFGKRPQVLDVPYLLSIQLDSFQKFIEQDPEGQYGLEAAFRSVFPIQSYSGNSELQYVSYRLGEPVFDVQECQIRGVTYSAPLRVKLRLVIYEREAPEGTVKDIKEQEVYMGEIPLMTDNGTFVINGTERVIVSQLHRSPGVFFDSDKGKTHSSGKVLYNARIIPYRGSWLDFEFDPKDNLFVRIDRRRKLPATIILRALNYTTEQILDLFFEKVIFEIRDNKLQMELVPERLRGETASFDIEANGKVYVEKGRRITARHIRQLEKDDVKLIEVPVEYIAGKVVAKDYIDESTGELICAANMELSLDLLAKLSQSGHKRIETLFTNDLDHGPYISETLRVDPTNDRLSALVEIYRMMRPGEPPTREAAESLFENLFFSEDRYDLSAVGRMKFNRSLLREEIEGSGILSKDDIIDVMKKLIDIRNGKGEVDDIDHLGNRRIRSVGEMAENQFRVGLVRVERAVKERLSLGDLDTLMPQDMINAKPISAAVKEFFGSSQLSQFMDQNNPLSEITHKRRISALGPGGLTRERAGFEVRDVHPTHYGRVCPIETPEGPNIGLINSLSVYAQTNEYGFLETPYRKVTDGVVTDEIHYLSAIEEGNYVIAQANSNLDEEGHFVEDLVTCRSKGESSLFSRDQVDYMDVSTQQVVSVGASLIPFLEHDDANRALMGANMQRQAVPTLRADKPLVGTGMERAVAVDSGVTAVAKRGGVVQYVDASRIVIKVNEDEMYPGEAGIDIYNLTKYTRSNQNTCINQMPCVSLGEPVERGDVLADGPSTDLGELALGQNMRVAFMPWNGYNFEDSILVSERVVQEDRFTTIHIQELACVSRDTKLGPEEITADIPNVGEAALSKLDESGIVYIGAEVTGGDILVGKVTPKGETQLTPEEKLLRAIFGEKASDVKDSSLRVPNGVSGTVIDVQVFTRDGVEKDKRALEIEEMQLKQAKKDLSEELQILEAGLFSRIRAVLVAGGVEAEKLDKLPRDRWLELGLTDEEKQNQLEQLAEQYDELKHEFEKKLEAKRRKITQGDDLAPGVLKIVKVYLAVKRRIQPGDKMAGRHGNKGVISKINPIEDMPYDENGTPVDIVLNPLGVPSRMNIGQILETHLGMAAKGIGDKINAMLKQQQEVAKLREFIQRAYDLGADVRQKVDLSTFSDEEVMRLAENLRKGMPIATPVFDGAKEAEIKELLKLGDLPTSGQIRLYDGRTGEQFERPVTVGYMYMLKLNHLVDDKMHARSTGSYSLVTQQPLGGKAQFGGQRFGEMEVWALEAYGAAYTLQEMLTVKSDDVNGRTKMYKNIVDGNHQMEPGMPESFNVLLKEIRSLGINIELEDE
Sequence of E. coli RNA polymerase σ70 holoenzyme (P0A8T7 whole entry, the tested form may be a part): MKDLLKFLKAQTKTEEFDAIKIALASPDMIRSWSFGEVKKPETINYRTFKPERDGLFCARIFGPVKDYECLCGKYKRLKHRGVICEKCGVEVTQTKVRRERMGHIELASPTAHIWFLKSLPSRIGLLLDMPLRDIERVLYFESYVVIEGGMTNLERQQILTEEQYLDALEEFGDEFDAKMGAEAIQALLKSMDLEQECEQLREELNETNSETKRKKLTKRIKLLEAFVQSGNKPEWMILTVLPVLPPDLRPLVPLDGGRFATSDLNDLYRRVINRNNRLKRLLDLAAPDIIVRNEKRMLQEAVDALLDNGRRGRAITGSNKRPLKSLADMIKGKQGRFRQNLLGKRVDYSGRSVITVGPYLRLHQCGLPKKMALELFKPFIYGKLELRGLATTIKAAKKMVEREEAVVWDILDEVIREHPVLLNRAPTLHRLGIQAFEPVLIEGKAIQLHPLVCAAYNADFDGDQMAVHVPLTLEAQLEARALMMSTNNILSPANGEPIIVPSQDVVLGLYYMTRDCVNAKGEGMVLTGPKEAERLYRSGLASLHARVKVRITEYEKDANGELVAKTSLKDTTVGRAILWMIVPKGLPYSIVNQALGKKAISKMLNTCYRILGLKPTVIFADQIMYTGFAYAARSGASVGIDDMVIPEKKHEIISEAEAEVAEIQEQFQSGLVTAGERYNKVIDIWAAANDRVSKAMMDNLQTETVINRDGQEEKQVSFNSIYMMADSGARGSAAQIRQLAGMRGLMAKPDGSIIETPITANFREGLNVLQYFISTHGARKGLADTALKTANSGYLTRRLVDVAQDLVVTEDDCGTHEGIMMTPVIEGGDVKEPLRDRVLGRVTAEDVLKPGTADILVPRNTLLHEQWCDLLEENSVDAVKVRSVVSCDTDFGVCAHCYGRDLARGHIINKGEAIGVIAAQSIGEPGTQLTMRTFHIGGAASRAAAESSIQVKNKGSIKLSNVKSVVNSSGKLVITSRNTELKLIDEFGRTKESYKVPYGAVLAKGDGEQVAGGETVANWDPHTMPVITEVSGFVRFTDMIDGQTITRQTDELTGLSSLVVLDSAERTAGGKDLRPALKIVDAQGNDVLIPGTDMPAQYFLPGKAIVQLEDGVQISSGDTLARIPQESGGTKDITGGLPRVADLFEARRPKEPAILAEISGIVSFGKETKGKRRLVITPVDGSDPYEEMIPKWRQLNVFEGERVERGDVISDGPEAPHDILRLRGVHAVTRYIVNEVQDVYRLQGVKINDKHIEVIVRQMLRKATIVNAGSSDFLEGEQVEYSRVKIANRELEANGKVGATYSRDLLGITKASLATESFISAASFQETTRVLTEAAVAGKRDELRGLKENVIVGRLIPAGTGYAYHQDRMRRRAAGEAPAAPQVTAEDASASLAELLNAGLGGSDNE
Sequence of E. coli RNA polymerase σ70 holoenzyme (P0A7Z4 whole entry partner, the tested form may be a part): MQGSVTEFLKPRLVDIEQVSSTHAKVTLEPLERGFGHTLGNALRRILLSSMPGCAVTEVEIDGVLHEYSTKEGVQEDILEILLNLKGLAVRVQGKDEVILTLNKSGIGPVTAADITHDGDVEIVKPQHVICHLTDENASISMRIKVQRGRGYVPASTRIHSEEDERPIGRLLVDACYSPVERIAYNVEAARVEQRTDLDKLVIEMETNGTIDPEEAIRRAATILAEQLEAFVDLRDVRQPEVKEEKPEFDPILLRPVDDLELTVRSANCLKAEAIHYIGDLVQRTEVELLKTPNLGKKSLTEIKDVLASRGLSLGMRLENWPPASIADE
Sequence of E. coli RNA polymerase σ70 holoenzyme (P0A800 2-91 partner limits assumed): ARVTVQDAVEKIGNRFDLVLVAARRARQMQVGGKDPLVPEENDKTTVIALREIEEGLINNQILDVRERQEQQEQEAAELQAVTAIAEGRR
Sequence of E. coli RNA polymerase σ70 holoenzyme (P00579 whole entry partner, the tested form may be a part): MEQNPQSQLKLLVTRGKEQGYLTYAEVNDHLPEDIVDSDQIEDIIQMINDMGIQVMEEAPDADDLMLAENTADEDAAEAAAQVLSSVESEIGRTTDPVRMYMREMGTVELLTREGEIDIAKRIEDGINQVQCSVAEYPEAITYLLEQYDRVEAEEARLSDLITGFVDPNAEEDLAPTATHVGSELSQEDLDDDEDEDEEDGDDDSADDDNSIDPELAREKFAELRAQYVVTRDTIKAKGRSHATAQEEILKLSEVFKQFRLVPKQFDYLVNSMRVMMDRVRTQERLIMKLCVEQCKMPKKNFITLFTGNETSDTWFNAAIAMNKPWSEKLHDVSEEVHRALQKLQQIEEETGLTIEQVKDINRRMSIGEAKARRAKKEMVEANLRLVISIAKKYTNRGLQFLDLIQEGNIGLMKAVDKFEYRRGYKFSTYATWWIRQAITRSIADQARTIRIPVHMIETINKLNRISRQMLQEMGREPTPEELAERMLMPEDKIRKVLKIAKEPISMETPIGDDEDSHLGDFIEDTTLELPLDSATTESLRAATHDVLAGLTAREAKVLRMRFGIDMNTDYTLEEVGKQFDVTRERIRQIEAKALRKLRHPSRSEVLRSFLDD
Method: Fluorescence-detected RNA polymerase assays with E. coli RNA polymerase were performed by a modification of the procedure of Kuhlman et al., 2004 [Kuhlman, P., Duff, H. & Galant, A. (2004) A fluorescence-based assay for multisubunit DNA-dependent RNA polymerases. Anal. Biochem. 324, 183-190]. Reaction mixtures contained (20 μl): 0-100 nM test compound, 75 nM E. coli RNA polymerase σ^70holoenzyme, 20 nM 384 bp DNA fragment containing the bacteriophage T4 N25 promoter, 100 μM ATP, 100 μM GTP, 100 μM UTP, 100 μM CTP, 50 mM Tris-HCl, pH 8.0, 100 mM KCl, 10 mM MgCl2, 1 mM DTT, 10 μg/ml bovine serum albumin, and 5.5% glycerol. Reaction components other than DNA and NTPs were pre-incubated for 10 min at 37° C. Reactions were carried out by addition of DNA and incubation for 5 min at 37° C., followed by addition of NTPs and incubation for 60 min at 37° C. DNA was removed by addition of 1 μl 5 mM CaCl2 and 2 U DNaseI (Ambion, Inc.), followed by incubation for 90 min at 37° C. RNA was quantified by addition of 100 μl RiboGreen RNA Quantitation Reagent (Invitrogen, Inc.; 1:500 dilution in Tris-HCl, pH 8.0, 1 mM EDTA), followed by incubation for 10 min at 25° C., followed by measurement of fluorescence intensity [excitation wavelength=485 nm and emission wavelength=535 nm; QuantaMaster QM1 spectrofluorometer (PTI, Inc.)]. IC50 is defined as the concentration of inhibitor resulting in 50% inhibition of RNA polymerase activity.

[4] = tested on: Mycobacterium tuberculosis H37Rv; assay: Inhibition of growth of Mycobacterium tuberculosis (microplate Alamar Blue assay); format: cell-based; conditions: read-out: in vitro antibacterial activity M. tuberculosis H37Rv MIC
[5] = In vivo pharmacokinetics in mice (intravenous administration); conditions: CD-1 mice, 2.5 mg/kg
Method: Test compounds (2.5 mg/kg; 0.1 ml of 0.625 mg/ml solution in 5% dimethylacetamide and 4% Cremophor EL in 100 mM sodium phosphate, pH 7.4) were administered to mice (CD-1; […]; n=3) by intravenous injection into a tail vein at t=0 h. Blood samples were collected by tail-vein bleed (CB 300 K2E tubes; Sarstedt) at t=0.02, 0.05, 1, 3, 5, and 8 h, and plasma concentrations of test compounds were determined by LC-MS/MS.

[6] = tested on: Staphylococcus aureus ATCC 12600; assay: Inhibition of growth of Staphylococcus aureus (spiral gradient endpoint assay); format: cell-based; conditions: read-out: in vitro antibacterial activity S. aureus ATCC 12600 MIC
Source text: Minimum inhibitory concentrations (MICs) for Staphylococcus aureus ATCC 12600 were quantified using spiral gradient endpoint assays, essentially as described [Wallace, A. and Corkill, J. (1989) Application of the spiral plating method to study antimicrobial action. J. Microbiol. Meths. 10, 303-310; Paton, J., Holt, A., and Bywater, M. (1990) Measurement of MICs of antibacterial agents by spiral gradient endpoint compared with conventional dilution methods. Int. J. Exp. Clin. Chemother. 3, 31-38; Schalkowsky S. (1994) Measures of susceptibility from a spiral gradient of drug concentrations. Adv. Exp. Med. Biol. 349, 107-120]. Assays employed exponential-gradient plates containing 150 mm×4 mm Mueller-Hinton II cation-adjusted agar and 0.4-100 μg/ml of test compound. Plates were prepared using an Autoplate 4000 spiral plater (Spiral Biotech, Inc.). Saturated overnight cultures were swabbed radially onto plates, and plates were incubated for 16 h at 37° C. For each culture, the streak length was measured using a clear plastic template (Spiral Biotech, Inc.), the test-compound concentration at the streak endpoint was calculated using the program SGE (Spiral Biotech, Inc.), and the MIC was defined as the calculated test-compound concentration at the streak endpoint.

[7] = 75 nM E. coli RNAP holoenzyme, RiboGreen fluorescence, read-out: in vitro RNAP-inhibitory activity E. coli RNAP IC50
[8] = ATCC12600, spiral gradient endpoint assay, 16 h at 37° C.

Compound | mouse liver microsome t0.5 [1] [min] | human liver microsome t0.5 [2] [min] | IC50 [3, 7] [nM] | MIC [4] [µg/mL] | plasma t0.5 [5] [h] | MIC [6, 8] [µg/mL] | MIC ([6]; ATCC12600, 16 h) [µg/mL] | IC50 [3] [nM]
CCCC/C(C)=C/C=C(\C)C(=O)c1c(O)cc(C(C)CC/C=C/NC(=O)OC)oc1=O (racemic) [Example 10, (±)Myxopyronin B, reference compound] | 21 | 1.7 | 13 | – | – | – | – | –
COC(=O)N/C=C/CCC(C)c1cc(O)c(C(=O)/C(C)=C/c2sc(Oc3ccc(F)cc3)nc2C)c(=O)o1 (centres unmarked) [Example 1] | 21 | 8.3 | 5.6 | 3.12 (≈ 5.76 µM) | 2.7 | 0.35 (≈ 0.645 µM) | – | –
COC(=O)N/C=C/CCC(C)c1cc(O)c(C(=O)/C(C)=C/c2cnc(Oc3ccc(F)cc3)s2)c(=O)o1 (centres unmarked) [Example 2] | 60 | 14 | 9.6 | 3.12 (≈ 5.91 µM) | 2.8 | 0.5 (≈ 0.946 µM) | – | –
COC(=O)N/C=C/CCCc1cc(O)c(C(=O)/C(C)=C/c2sc(Oc3ccc(F)cc3)nc2C)c(=O)o1 [Example 3] | 110 | 5.6 | 4.5 | 1.56 (≈ 2.95 µM) | 2.5 | 0.17 (≈ 0.322 µM) | – | –
[2H]C([2H])([2H])OC(=O)N/C=C/CCC(C)c1cc(O)c(C(=O)/C(C)=C/c2sc(Oc3ccc(F)cc3)nc2C)c(=O)o1 (centres unmarked) [Example 4] | 59 | 16 | 6.8 | – | 2.7 | 0.24 (≈ 0.44 µM) | – | –
[2H]C([2H])([2H])OC(=O)N/C=C/CCC(C)c1cc(O)c(C(=O)/C(C)=C/c2cnc(Oc3ccc(F)cc3)s2)c(=O)o1 (centres unmarked) [Example 5] | >120 | 21 | 5.3 | 1.56 (≈ 2.93 µM) | 3.0 | 0.3 (≈ 0.564 µM) | – | –
COC(=O)N/C=C/CCCc1cc(O)c(C(=O)/C(C)=C/c2cnc(Oc3ccc(F)cc3)s2)c(=O)o1 [Example 6] | >120 | 8.6 | 8.4 | 0.78 (≈ 1.52 µM) | 2.4 | 0.73 (≈ 1.42 µM) | – | –
[2H]C([2H])([2H])OC(=O)N/C=C/CCCc1cc(O)c(C(=O)/C(C)=C/c2sc(Oc3ccc(F)cc3)nc2C)c(=O)o1 [Example 7] | >120 | 8.3 | 2 | 0.78 (≈ 1.47 µM) | 2.6 | 0.19 (≈ 0.357 µM) | – | –
[2H]C([2H])([2H])OC(=O)N/C=C/CCCc1cc(O)c(C(=O)/C(C)=C/c2cnc(Oc3ccc(F)cc3)s2)c(=O)o1 [Example 8] | >120 | 21 | 3 | 0.78 (≈ 1.51 µM) | 2.7 | 0.25 (≈ 0.483 µM) | – | –
[2H]C([2H])([2H])OC(=O)N/C=C/CCCc1cc([O-])c(C(=O)/C(C)=C/c2cnc(Oc3ccc(F)cc3)s2)c(=O)o1.[Na+] [Example 9] | >120 | 29 | – | 0.39 | 3.9 | – | 0.41 | 3
COC(=O)N/C=C/CCC(C)c1cc(O)c(C(=O)/C(C)=C/C=C(\C)CCC(F)(F)F)c(=O)o1 (centres unmarked) [Example 11, reference compound] | 100 | 25 | 12 | – | – | – | – | –
[2H]C([2H])([2H])OC(=O)N/C=C/CCC(C)c1cc(O)c(C(=O)/C(C)=C/C=C(\C)CCCC)c(=O)o1 (centres unmarked) [Example 12] | 66 | 4.2 | – | – | – | – | – | –
[2H]C([2H])([2H])OC(=O)N/C=C/CCC(C)c1cc(O)c(C(=O)/C(C)=C/C=C(\C)CCC(F)(F)F)c(=O)o1 (centres unmarked) [Example 13] | >120 | 33 | 23 | – | – | – | – | –
[2H]C([2H])([2H])OC(=O)N/C=C/CCCc1cc(O)c(C(=O)/C(C)=C/c2cnc(Oc3ccc(F)c(Cl)c3)s2)c(=O)o1 [Example 14] | 65 | 21 | 2.9 | 0.78 (≈ 1.41 µM) | 1.8 | 0.19 (≈ 0.344 µM) | – | –
[2H]C([2H])([2H])OC(=O)N/C=C/CCCc1cc([O-])c(C(=O)/C(C)=C/c2cnc(Oc3ccc(F)c(Cl)c3)s2)c(=O)o1.[Na+] [Example 15] | – | – | – | 0.78 | – | – | 0.17 | 2.9
[2H]C([2H])([2H])OC(=O)N/C=C/CCCc1cc(O)c(C(=O)/C(C)=C/c2cnc(Oc3ccc(-c4ccccc4)cc3)s2)c(=O)o1 [Example 16] | 46 | 44 | 18 | > 50 | – | > 8 | – | –
[2H]C([2H])([2H])OC(=O)N/C=C/CCCc1cc([O-])c(C(=O)/C(C)=C/c2cnc(Oc3ccc(-c4ccccc4)cc3)s2)c(=O)o1.[Na+] [Example 17] | – | – | – | > 50 | – | – | – | 49
[2H]C([2H])([2H])OC(=O)N/C=C/CCCc1cc(O)c(C(=O)/C(C)=C/c2cnc(Oc3ccc(F)c(Br)c3)s2)c(=O)o1 [Example 18] | – | – | 1.6 | 0.78 (≈ 1.31 µM) | – | 0.35 (≈ 0.587 µM) | – | –
[2H]C([2H])([2H])OC(=O)N/C=C/CCCc1cc(O)c(C(=O)/C(C)=C/c2cnc(Oc3ccc(F)c(-c4ccccc4)c3)s2)c(=O)o1 [Example 19] | – | – | 1.2 | 25 (≈ 42.1 µM) | – | 0.93 (≈ 1.57 µM) | – | –
[2H]C([2H])([2H])OC(=O)N/C=C/CCCc1cc(O)c(C(=O)/C(C)=C/c2cnc(Oc3ccc(F)c(F)c3)s2)c(=O)o1 [Example 20] | – | – | 3 | 0.78 (≈ 1.46 µM) | – | 0.26 (≈ 0.485 µM) | – | –
